In patent US20050027015A1 (priority 2001, published 2005):

Experiments:
[1] = exposed to air or at an elevated temperature; cited from earlier work
animals = conditions: ingesting cysteamine directly; cited from earlier work
black & white dairy cows = test: Experiment 3: three-stage feeding trial, black & white dairy cows; assay type: in vivo; conditions: control group, 40 g per cow every other day, versus 20 g daily (2.89 vs 2.73 wt %)
Description: Thirty-two black & white dairy cows were used in the experiment and were randomly divided into four groups, namely test Groups I to III, and a control group. Each group had eight cows. […] There were three stages in the experiment. In the first stage of the experiment, the feed for the test Groups I to III of cows was mixed with the composition such that each cow in the three test groups was fed with 20 g, 30 g and 40 g of the composition respectively daily. No cysteamine-containing composition was mixed in the feed for the control group of cows. The first stage of the experiment lasted for thirty-seven days and was preceded by a three-day adaptation period. During the second stage of the experiment, the composition was not added to the feed for the three test groups of cows. However, each cow in the control group was fed with 20 g of the composition daily via its feed. The second stage of the experiment lasted for seven days. During the third stage of the experiment, the three test groups of cows were fed with the feed mixed with the composition such that 20 g of the composition was taken by each cow daily. Each cow in the control group was fed with 40 g of the composition every other day via the feed. The third stage of the experiment lasted for seven days. The daily milk yield, milk fat content, milk protein content and somatic cells in milk were measured and recorded. […]

somatostain (SS) = conditions: pigs, poultry, fowls, goats, rabbits and fish; cited from earlier work

## NCCS [cysteamine]
[1]
  oxidation: readily oxidized
animals
  gastro side effects: will cause undesirable gastro side effects
Black & white dairy cows
  increase of milk protein content: 5.86%
Somatostain (SS)
  effect on somatostain (SS): can deplete somatostain (SS)
